Data on 43 molecules can be found in patent US10307413B2, “Tetrahydro- and dihydro-isoquinoline PRMT5 inhibitors and uses thereof” (Epizyme, Inc., priority 2013, dated 2019).

The test system of one assay is Z-138 cell line. In words: Z-138 Proliferation Assay (Cell Titer Glo, 5 days). The class given is cell-based. Particulars: Homo sapiens, 120 h; Z-138 cells, 5 days; read-out: Proliferation EC50. From the text: RPMI/Glutamax medium, penicillin-streptomycin, heat inactivated fetal bovine serum were purchased from Life Technologies, Grand Island, N.Y., USA. V-bottom polypropylene 384-well plates were purchased from Greiner Bio-One, Monroe, N.C., USA. Cell culture 384-well white opaque plates were purchased from Perkin Elmer, Waltham, Mass., USA. Cell-Titer Glo® was purchased from Promega Corporation, Madison, Wis., USA. SpectraMax M5 plate reader was purchased from Molecular Devices LLC, Sunnyvale, Calif., USA.
A compound source plate was prepared by performing triplicate nine-point 3-fold serial dilutions in DMSO, beginning at 10 mM (final top concentration of compound in the assay was 20 μM and the DMSO was 0.2%). A 100 nL aliquot from the compound stock plate was added to its respective well in the cell plate. […] After addition of compounds, assay plates were incubated for 5 days at 37° C., 5% CO2, relative humidity >90%.
Cell viability was measured by quantitation of ATP present in the cell cultures, adding […] of Cell Titer Glo® reagent to the cell plates. Luminescence was read in the SpectraMax M5 microplate reader. The concentration of compound inhibiting cell viability by 50% was determined using a 4-parametric fit of the normalized dose response curves.
On the technique in general: ATP-based viability assays read luminescence as a measure of living cells.

The subject of assay [1] is symmetric di-methyl arginine in Z-138 cells. In words: Z-138 Methylation Assay (In Cell Western for symmetric di-methyl arginine and DNA content). It is filed as cell-based. Conditions: Homo sapiens, read-out: ICW EC50. The text has this:
[formula] [formula] Where top and bottom are the normally allowed to float, but may be fixed at 100 or 0 respectively in a 3-parameter fit. The Hill Coefficient normally allowed to float but may also be fixed at 1 in a 3-parameter fit. Y is the % inhibition and X is the compound concentration.
RPMI/Glutamax medium, penicillin-streptomycin, heat inactivated fetal bovine serum, and D-PBS were purchased from Life Technologies, Grand Island, N.Y., USA. Odyssey blocking buffer, 800CW goat anti-rabbit IgG (H+L) antibody, and Licor Odyssey infrared scanner were purchased from Licor Biosciences, Lincoln, Nebr., USA. Symmetric di-methyl arginine antibody was purchased from EMD Millipore, Billerica, Mass., USA. 16% Paraformaldehyde was purchased from Electron Microscopy Sciences, Hatfield, Pa., USA.
Cell Treatment, in Cell Western (ICW) for Detection of Symmetric Di-Methyl Arginine and DNA Content.
Z-138 cells were seeded in assay medium at a concentration of 50,000 cells per mL to a 384-well cell culture plate with 50 μL per well. Compound (100 nL) from 384 well source plates was added directly to 384 well cell plate. Plates were incubated at 37° C., 5% CO2 for 96 hours. […] Plates were incubated at room temperature for 30 minutes then incubated at 37° C., 5% CO2 for 5 hours. After the incubation, 40 μL per well of 8% paraformaldehyde in PBS (16% paraformaldahyde was diluted to 8% in PBS) was added to each plate and incubated for 30 minutes. […] Next 30 μL per well of Odyssey blocking buffer were added to each plate and incubated 1 hour at room temperature. Blocking buffer was removed and 20 μL per well of primary antibody was added (symmetric di-methyl arginine diluted 1:100 in Odyssey buffer with 0.1% Tween 20 (v/v)) and plates were incubated overnight (16 hours) at 4° C. Plates were washed 5 times with 100 μL per well of wash buffer. Next 20 μL per well of secondary antibody was added (1:200 800CW goat anti-rabbit IgG (H+L) antibody, 1:1000 DRAQ5 (Biostatus limited) in Odyssey buffer with 0.1% Tween 20 (v/v)) and incubated for 1 hour at room temperature. The plates were washed 5 times with 100 μL per well wash buffer then 1 time with 100 μL per well of water. Plates were allowed to dry at room temperature then imaged on the Licor Odyssey machine which measures integrated intensity at 700 nm and 800 nm wavelengths. Both 700 and 800 channels were scanned.
First, the ratio for each well was determined by:
Each plate included fourteen control wells of DMSO only treatment (minimum inhibition) as well as fourteen control wells for maximum inhibition treated with 3 μM of a reference compound (Background wells). The average of the ratio values for each control type was calculated and used to determine the percent inhibition for each test well in the plate. Reference compound was serially diluted three-fold in DMSO for a total of nine test concentrations, beginning at 3 μM. Percent inhibition was determined and IC50 curves were generated using triplicate wells per concentration of compound. Percent Inhibition=100−

For the molecule `O=C(NCC(O)CN1CCc2ccccc2C1)c1ccc(OC2CCNCC2)cc1` (centres unmarked) [Compound 104], the figures for the EC50 (in the assay on Z-138 cell line; in assay [1]) were 1 to 10 µM and < 0.1 µM, respectively.
On the same counts, the results for `CN1CCC(Oc2ccc(C(=O)NCC(O)CN3CCc4ccccc4C3)cc2)CC1` (centres unmarked) [Compound 105] are 1 to 10 µM and < 0.1 µM.
On to `CC(C)N1CCC(Oc2ccc(C(=O)NCC(O)CN3CCc4ccccc4C3)cc2)CC1` (centres unmarked) [Compound 106], for which the EC50 with Z-138 cell line is 0.101 to 1 µM; in assay [1], < 0.1 µM.
In the same order, the values of `CC(=O)N1CCC(Oc2ccc(C(=O)NCC(O)CN3CCc4ccccc4C3)cc2)CC1` (centres unmarked) [Compound 107] are 0.101 to 1 µM and < 0.1 µM.
On the same counts, the results for `CS(=O)(=O)N1CCC(Oc2ccc(C(=O)NCC(O)CN3CCc4ccccc4C3)cc2)CC1` (centres unmarked) [Compound 108] are 0.101 to 1 µM and < 0.1 µM.
As for `O=C(NCC(O)CN1CCc2ccccc2C1)c1ccc(OC2CCN(CC(F)(F)F)CC2)cc1` (centres unmarked) [Compound 109], the EC50 is 0.101 to 1 µM in the assay with Z-138 cell line and < 0.1 µM in assay [1].
On the same counts, the results for `O=C(NCC(O)CN1CCc2ccccc2C1)c1ccc(-n2cncn2)cc1` (centres unmarked) [Compound 110] are 1 to 10 µM and < 0.1 µM.
On to `CN(C[C@H](O)CN1CCc2ccccc2C1)C(=O)c1cccc(NC2CCOCC2)c1` [Compound 111], for which the EC50 was 1 to 10 µM in the assay on Z-138 cell line and 0.101 to 1 µM in assay [1].
With `O=C(NCC(O)CN1CCc2ccccc2C1)c1cn[nH]c1-c1ccccc1` (centres unmarked) [Compound 112], the EC50 in the assay with Z-138 cell line is > 20 µM; in assay [1], 1 to 10 µM.
Turning to `O=C(NCC(O)CN1CCc2ccccc2C1)c1cccc(CN2CCN(CCO)CC2)c1` (centres unmarked) [Compound 113], the values for the EC50 (in the assay on Z-138 cell line; in assay [1]) were 10 to 50 µM and 0.101 to 1 µM, respectively.
In the same order, the values of `COCCN1CCN(Cc2cccc(C(=O)NCC(O)CN3CCc4ccccc4C3)c2)CC1` (centres unmarked) [Compound 114] are 10 to 50 µM and 0.101 to 1 µM.
Take `CN1CCN(Cc2cccc(C(=O)NCC(O)CN3CCc4ccccc4C3)c2)C(CO)C1` (centres unmarked) [Compound 115]: the EC50 in the assay on Z-138 cell line was > 20 µM; in assay [1], 0.101 to 1 µM.
On the same counts, the results for `NC(=O)CNCc1cccc(C(=O)NCC(O)CN2CCc3ccccc3C2)c1` (centres unmarked) [Compound 116] are > 20 µM and 0.101 to 1 µM.
Take `CNC(=O)CNCc1cccc(C(=O)NCC(O)CN2CCc3ccccc3C2)c1` (centres unmarked) [Compound 117]: the EC50 is > 20 µM with Z-138 cell line and 0.101 to 1 µM in assay [1].
On to `CN(C)C(=O)CNCc1cccc(C(=O)NCC(O)CN2CCc3ccccc3C2)c1` (centres unmarked) [Compound 118], for which the results for the EC50 (in the assay with Z-138 cell line; in assay [1]) were > 20 µM and 0.101 to 1 µM, respectively.
In the same order, the values of `O=C(NCC(O)CN1CCc2ccccc2C1)c1cccc(OC2CCNC2)c1` (centres unmarked) [Compound 119] are 1 to 10 µM and 0.101 to 1 µM.
In the same order, the values of `CC(=O)N1CCC(Nc2cccc(C(=O)NCC(O)CN3CCc4ccccc4C3)c2)C1` (centres unmarked) [Compound 121] are 0.101 to 1 µM and < 0.1 µM.
On to `CS(=O)(=O)N1CCC(Nc2cccc(C(=O)NCC(O)CN3CCc4ccccc4C3)c2)C1` (centres unmarked) [Compound 122], for which the EC50 is 0.101 to 1 µM in the assay on Z-138 cell line and < 0.1 µM in assay [1].
With `CN1CCC(Nc2cccc(C(=O)NCC(O)CN3CCc4ccccc4C3)c2)CC1` (centres unmarked) [Compound 123], the EC50 with Z-138 cell line lay in the range of 1 to 10 µM; in assay [1], 0.101 to 1 µM.
On the same counts, the results for `CC(=O)N1CCC(Nc2cccc(C(=O)NCC(O)CN3CCc4ccccc4C3)c2)CC1` (centres unmarked) [Compound 124] are < 0.1 µM and < 0.1 µM.
In the same order, the values of `CS(=O)(=O)N1CCC(Nc2cccc(C(=O)NCC(O)CN3CCc4ccccc4C3)c2)CC1` (centres unmarked) [Compound 125] are 0.101 to 1 µM and < 0.1 µM.
In the case of `O=C(NCC(O)CN1CCc2ccccc2C1)c1cccc(NC2CCN(CC(F)(F)F)CC2)c1` (centres unmarked) [Compound 126], the EC50 in the assay with Z-138 cell line is 1 to 10 µM; in assay [1], < 0.1 µM.
With `CC(=O)N1CCC(Nc2ccc(C(=O)NCC(O)CN3CCc4ccccc4C3)cc2)CC1` (centres unmarked) [Compound 127], the EC50 was 1 to 10 µM with Z-138 cell line and < 0.1 µM in assay [1].
In the same order, the values of `O=C(NCC(O)CN1CCc2ccccc2C1)c1ccc(NC2CCN(CC(F)(F)F)CC2)cc1` (centres unmarked) [Compound 128] are 1 to 10 µM and < 0.1 µM.
On the same counts, the results for `O=C(NCC(O)CN1CCc2ccccc2C1)c1ccc(NC2CCOC2)cc1` (centres unmarked) [Compound 129] are 1 to 10 µM and < 0.1 µM.
In the same order, the values of `O=C(NCC(O)CN1CCc2ccccc2C1)c1cccc(-n2cncn2)c1` (centres unmarked) [Compound 130] are 10 to 50 µM and 0.101 to 1 µM.
On to `CN1CCC(N(C)c2cccc(C(=O)NCC(O)CN3CCc4ccccc4C3)c2)CC1` (centres unmarked) [Compound 131], for which the EC50 in the assay on Z-138 cell line lay in the range of 1 to 10 µM; in assay [1], 0.101 to 1 µM.
Consider `CN1CCC(N(C)c2cccc(C(=O)NCC(O)CN3CCc4ccccc4C3)c2)C1` (centres unmarked) [Compound 132], for which the EC50 in the assay on Z-138 cell line was in the range of 1 to 10 µM; in assay [1], 0.101 to 1 µM.
In the same order, the values of `O=C(NCC(O)CN1CCc2ccccc2C1)c1cccc(OCCN2CCOCC2)c1` (centres unmarked) [Compound 133] are 1 to 10 µM and < 0.1 µM.
Turning to `CC(C)N1CCC(Oc2cccc(C(=O)NCC(O)CN3CCc4ccccc4C3)c2)C1` (centres unmarked) [Compound 135], the EC50 is 10 to 50 µM in the assay with Z-138 cell line and < 0.1 µM in assay [1].
In the same order, the values of `CC(=O)N1CCC(Oc2cccc(C(=O)NCC(O)CN3CCc4ccccc4C3)c2)C1` (centres unmarked) [Compound 136] are 1 to 10 µM and < 0.1 µM.
In the same order, the values of `O=C(NCC(O)CN1CCc2ccccc2C1)c1cccc(OC2CCN(CC(F)(F)F)C2)c1` (centres unmarked) [Compound 137] are 1 to 10 µM and < 0.1 µM.
In the same order, the values of `O=C(NCC(O)CN1CCc2ccccc2C1)c1ccc(NC2CCNCC2)cc1` (centres unmarked) [Compound 138] are 10 to 50 µM and 0.101 to 1 µM.
For the molecule `CN1CCC(Nc2ccc(C(=O)NCC(O)CN3CCc4ccccc4C3)cc2)CC1` (centres unmarked) [Compound 139], the values for the EC50 (in the assay on Z-138 cell line; in assay [1]) were 1 to 10 µM and < 0.1 µM, respectively.
On the same counts, the results for `CC(C)N1CCC(Nc2ccc(C(=O)NCC(O)CN3CCc4ccccc4C3)cc2)CC1` (centres unmarked) [Compound 140] are 1 to 10 µM and < 0.1 µM.
On the same counts, the results for `CS(=O)(=O)N1CCC(Nc2ccc(C(=O)NCC(O)CN3CCc4ccccc4C3)cc2)CC1` (centres unmarked) [Compound 141] are 1 to 10 µM and < 0.1 µM.
On the same counts, the results for `O=C(NCC(O)CN1CCc2ccccc2C1)c1ccc(CN2CCNCC2)cc1` (centres unmarked) [Compound 143] are 1 to 10 µM and < 0.1 µM.
For the molecule `CN(c1ccc(C(=O)NCC(O)CN2CCc3ccccc3C2)cc1)C1CCOC1` (centres unmarked) [Compound 144], the EC50 in the assay with Z-138 cell line is 1 to 10 µM; in assay [1] it was < 0.1 µM.
In the same order, the values of `O=C(NCC(O)CN1CCc2ccccc2C1)c1ccc(CN2CCOCC2)cc1` (centres unmarked) [Compound 145] are 1 to 10 µM and < 0.1 µM.
In the same order, the values of `COCCCOc1ccc(C(=O)NCC(O)CN2CCc3ccccc3C2)cc1` (centres unmarked) [Compound 146] are 1 to 10 µM and < 0.1 µM.
On the same counts, the results for `NCCN1CCN(Cc2cccc(C(=O)NCC(O)CN3CCc4ccccc4C3)c2)CC1` (centres unmarked) [Compound 147] are 10 to 50 µM and 0.101 to 1 µM.
With `O=C(NCC(O)CN1CCc2ccccc2C1)c1ccn[nH]1` (centres unmarked) [Compound 148], the EC50 in the assay with Z-138 cell line is > 20 µM; in assay [1] it was 1 to 10 µM.
In the same order, the values of `Cn1ccc(C(=O)NCC(O)CN2CCc3ccccc3C2)n1` (centres unmarked) [Compound 149] are > 20 µM and 1 to 10 µM.
